Experimental data from the supplement of paper PMC9663587.

Key:
Experiment in all cases: area over the GR curve, 72 h; higher = more effect;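 note: Dye Drop or Deep Dye Drop imaging of viable cells in 384-well plates (Hoechst nuclei, LIVE/DEAD dye), nine half-log doses, GR normalized to DMSO controls and time-zero plates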
184A1 = system: 184A1
BT20 = system: BT20
CAL120 = system: CAL120
CAMA1 = system: CAMA1
MCF7 = system: MCF7
PDX1328 = system: PDX1328
SUM149 = system: SUM149
SUM159 = system: SUM159
SUM185PE = system: SUM185PE
SUM229PE = system: SUM229PE
UACC893 = system: UACC893
ZR7530 = system: ZR7530

Row | Structure (SMILES) | area over the GR curve (184A1) | area over the GR curve (BT20) | area over the GR curve (CAL120) | area over the GR curve (CAMA1) | area over the GR curve (MCF7) | area over the GR curve (PDX1328) | area over the GR curve (SUM149) | area over the GR curve (SUM159) | area over the GR curve (SUM185PE) | area over the GR curve (SUM229PE) | area over the GR curve (UACC893) | area over the GR curve (ZR7530)
1 | COc1cc2nccc(Oc3ccc(NC(=O)C4(C(=O)Nc5ccc(F)cc5)CC4)cc3)c2cc1OC [Cabozantinib] (max 10 µM) | 0.0128 GR | 0.0446 GR | 0.0847 GR | 0.0239 GR | 0.107 GR | 0.0918 GR | 0.0344 GR | 0.059 GR | -0.023 GR | 0.0356 GR | -0.159 GR | 0.174 GR
2 | Cc1cc(C(C)Nc2ccccc2)c2nc(N3CCOCC3)cc(=O)n2c1 (configuration not stated) [TGX221] (max 10 µM) | 0.0024 GR | -0.0612 GR | -0.0168 GR | 0.0019 GR | -0.0083 GR | 0.0318 GR | -0.0254 GR | -0.0235 GR | 0.163 GR | -0.0167 GR | -0.111 GR | -0.0239 GR
3 | CN(C)C/C=C/C(=O)Nc1ccc(C(=O)N2CCC[C@@H](Nc3ncc(Cl)c(-c4c[nH]c5ccccc45)n3)C2)cc1 [THZ531] (max 1 µM) | 0.214 GR | 0.0416 GR | 0.21 GR | 0.241 GR | 0.344 GR | 0.418 GR | 0.154 GR | 0.0413 GR | 0.231 GR | 0.132 GR | 0.437 GR | 0.472 GR
4 | CCC(=O)Nc1ccc(C(=O)Nc2ccc(Nc3ncc4c(n3)N(C)c3ccc(C)cc3C(=O)N4C)cc2)cc1 [FMF-03-145-1] | 1 GR | 1.2 GR | 0.34 GR | 0.393 GR | 0.957 GR | 0.808 GR | 0.462 GR | 0.476 GR | 0.384 GR | 1.06 GR | 0.869 GR | 0.918 GR
5 | CN(C)C/C=C/C(=O)Nc1ccc(O[C@@H]2CCC[C@@H](Nc3ncc(Cl)c(-c4c[nH]c5ccccc45)n3)C2)cc1 [BSJ-01-175] (max 10 µM) | 1.15 GR | 0.812 GR | 0.667 GR | 0.68 GR | 1.19 GR | 0.898 GR | 0.747 GR | 0.646 GR | 0.597 GR | 0.745 GR | 0.927 GR | 0.989 GR
6 | CN1CCN(C(=O)c2ccc3cc(CCNc4ncnc5ccc(C#N)cc45)ccc3c2)CC1 [senexin b] (max 10 µM) | 0.107 GR | 0.275 GR | 0.131 GR | 0.351 GR | 0.249 GR | 0.0976 GR | 0.129 GR | 0.0855 GR | 0.293 GR | 0.21 GR | 0.185 GR | 0.274 GR
7 | CC(=O)Nc1cccc(-n2c(=O)n(C3CC3)c(=O)c3c(Nc4ccc(I)cc4F)n(C)c(=O)c(C)c32)c1 (max 1 µM) | 0.659 GR | 0.176 GR | 0.294 GR | 0.169 GR | 0.277 GR | 0.166 GR | 0.39 GR | 0.347 GR | -0.0188 GR | 0.472 GR | 0.434 GR | 0.219 GR
8 | CN(C)C/C=C/C(=O)Nc1ccc(C(=O)Nc2cccc(Nc3ncc(Cl)c(-c4c[nH]c5ccccc45)n3)c2)cc1 [THZ1] (max 1 µM) | 0.528 GR | 0.108 GR | 0.337 GR | 0.459 GR | 0.514 GR | 0.483 GR | 0.425 GR | 0.161 GR | 0.484 GR | 0.504 GR | 0.542 GR | 0.561 GR
9 | CCNC(=O)c1noc(-c2cc(C(C)C)c(O)cc2O)c1-c1ccc(CN2CCOCC2)cc1 [Luminespib/NVP-AUY922] (max 1 µM) | 0.539 GR | 0.559 GR | 0.693 GR | 0.535 GR | 0.513 GR | 0.751 GR | 0.754 GR | 0.53 GR | 0.673 GR | 0.729 GR | 1.07 GR | 0.536 GR
10 | C[C@@H]1COCCN1c1cc(C2([S@](C)(=N)=O)CC2)nc(-c2cc[nH]c3nccc2-3)n1 [AZD6738] (max 10 µM) | -0.0342 GR | -0.0437 GR | -0.169 GR | -0.0516 GR | 0.179 GR | 0.172 GR | 0.117 GR | 0.0107 GR | 0.0637 GR | 0.0968 GR | 0.0149 GR | -0.0333 GR
11 | C=CC(=O)Nc1ccc(C(=O)Nc2[nH]nc3c2CN(C(=O)N[C@H](CN(C)C)c2ccccc2)C3(C)C)cc1 [YKL-5-124] (max 10 µM) | 0.929 GR | 0.693 GR | 0.591 GR | 0.968 GR | 0.806 GR | 0.532 GR | 0.875 GR | 0.857 GR | 0.518 GR | 0.744 GR | 0.765 GR | 0.831 GR
12 | CC[C@@]1(O)C(=O)OCc2c1cc1n(c2=O)Cc2cc3c(CN(C)C)c(O)ccc3nc2-1 [Topotecan] (max 10 µM) |  | 1.03 GR | 0.913 GR | 1.05 GR | 0.854 GR | 1.07 GR | 0.941 GR | 0.864 GR |  |  |  | 
13 | CCCCOc1c(C(=O)c2c(F)cc(C)cc2F)c[nH]c2nncc1-2 (max 10 µM) | 0.954 GR | 0.84 GR | 0.346 GR | 0.842 GR | 0.697 GR | 0.142 GR | 0.637 GR | 0.466 GR | 0.103 GR | 0.662 GR | 0.519 GR | 0.481 GR
14 | CC(=O)O[C@H]1C(=O)[C@@]2(C)[C@H]([C@H](OC(=O)c3ccccc3)[C@]3(O)C[C@H](OC(=O)[C@H](O)[C@@H](NC(=O)c4ccccc4)c4ccccc4)C(C)=C1C3(C)C)[C@]1(OC(C)=O)CO[C@@H]1C[C@@H]2O [Paclitaxel] (max 1 µM) | 0.75 GR | 0.985 GR | 0.746 GR | 0.953 GR | 0.772 GR | 0.866 GR | 0.839 GR | 0.65 GR | 0.479 GR | 0.91 GR | 0.905 GR | 0.868 GR
15 | CCN1CCN(Cc2ccc(Nc3ncc(F)c(-c4cc(F)c5nc(C)n(C(C)C)c5c4)n3)nc2)CC1 (max 10 µM) | 0.635 GR | 0.569 GR | 0.478 GR | 0.613 GR | 0.702 GR | 0.676 GR | 0.344 GR | 0.372 GR | 0.254 GR | 0.383 GR | 0.657 GR | 0.546 GR
16 | CN(C)C(=O)c1cc2cnc(Nc3ccc(N4CCNCC4)cn3)nc2n1C1CCCC1 [LEE011/Ribociclib] (max 10 µM) | 0.449 GR | 0.433 GR | 0.265 GR | 0.651 GR | 0.442 GR | 0.406 GR | 0.188 GR | 0.244 GR | 0.101 GR | 0.221 GR | 0.53 GR | 0.398 GR
